Reference: ChEMBL document CHEMBL2146468, “Thrombin inhibitors from the freshwater cyanobacterium Anabaena compacta” (J Nat Prod, 2012)

Legend:
[1] = Inhibition of trypsin
[2] = Selectivity ratio of EC50 for bovine thrombin to EC50 for cathepsin B
Cathepsin B = Cathepsin B (Homo sapiens, UniProt P07858); assay: Inhibition of cathepsin B using Z-Phe-Arg-MCA as substrate incubated for 10 mins prior to substrate addition measured after 30 mins by fluorimetric analysis
Prothrombin [3] = target: Prothrombin (Bos taurus, UniProt P00735); assay: Inhibition of bovine thrombin using Bz-Phe-Val-Arg-pNA as substrate incubated for 5 mins prior to substrate addition measured after 30 mins by spectrophotometric analysis
Prothrombin [4] = target: Prothrombin (Homo sapiens, UniProt P00734); assay: Inhibition of thrombin
Plasminogen = Plasminogen (Homo sapiens, UniProt P00747); assay: Inhibition of plasmin
Sequence of Plasminogen (P00747 97-580 limits assumed): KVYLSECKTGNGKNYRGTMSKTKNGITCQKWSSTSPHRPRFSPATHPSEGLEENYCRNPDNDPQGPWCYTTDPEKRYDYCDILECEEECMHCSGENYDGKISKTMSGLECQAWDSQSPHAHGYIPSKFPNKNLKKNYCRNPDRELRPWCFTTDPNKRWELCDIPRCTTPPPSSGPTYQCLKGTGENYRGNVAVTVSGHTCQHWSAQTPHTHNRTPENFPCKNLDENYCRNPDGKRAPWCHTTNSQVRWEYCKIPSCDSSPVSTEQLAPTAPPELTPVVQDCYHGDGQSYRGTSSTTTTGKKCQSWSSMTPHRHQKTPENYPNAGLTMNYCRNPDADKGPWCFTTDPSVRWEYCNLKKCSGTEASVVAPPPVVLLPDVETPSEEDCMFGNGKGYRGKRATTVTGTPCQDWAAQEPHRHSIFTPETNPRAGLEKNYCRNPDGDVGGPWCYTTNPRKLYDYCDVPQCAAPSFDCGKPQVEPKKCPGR
Sequence of Plasminogen (P00747 581-810 limits assumed): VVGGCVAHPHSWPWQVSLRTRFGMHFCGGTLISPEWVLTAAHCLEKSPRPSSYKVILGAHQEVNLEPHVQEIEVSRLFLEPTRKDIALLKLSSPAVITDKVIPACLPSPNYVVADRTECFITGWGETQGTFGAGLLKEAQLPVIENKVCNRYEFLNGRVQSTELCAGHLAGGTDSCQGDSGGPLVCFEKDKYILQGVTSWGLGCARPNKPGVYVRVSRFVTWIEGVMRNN

SMILES | EC50 [1] | Ratio EC50 [2] | EC50 (Cathepsin B) | EC50 (Prothrombin [3]) | EC50 (Prothrombin [4]) | EC50 (Plasminogen)
C[C@H]1C[C@@H](C(=O)N[C@H](CO)CCCNC(=N)N)N(C(=O)[C@@H](CCc2ccc(O)cc2)NC(=O)[C@H](O)Cc2ccc(O)cc2)C1 [SPUMIGIN A] | 26.3 µM | 10 |  |  |  | 
C[C@H]1C[C@@H](C(=O)NC(C=O)CCCNC(=N)N)N(C(=O)[C@@H](CCc2ccc(O)cc2)NC(=O)[C@H](O)Cc2ccc(O)cc2)C1 (stereo partly specified) [SPUMIGIN E] | 0.3 µM |  |  |  |  | 
C[C@H]1C[C@@H](C(=O)N(C)[C@H](CCCCN)C(=O)O)N(C(=O)[C@@H](CCc2ccc(O)cc2)NC(=O)[C@H](O)Cc2ccc(O)cc2)C1 [SPUMIGIN J] |  | 7 | 700 nM | 4.9 µM |  | 
C[C@H]1C[C@@H](C(=O)N[C@H](CO)CCCN=C(N)N)N(C(=O)[C@@H](CCc2ccc(O)cc2)NC(=O)[C@H](O)Cc2ccc(O)cc2)C1 [SPUMIGIN A] |  |  | 200 nM | 2.1 µM | 7.5 µM | 4.9 µM
C[C@H]1C[C@@H](C(=O)N[C@@H](CCCNC(=N)N)C(=O)O)N(C(=O)[C@@H](CCc2ccc(O)cc2)NC(=O)[C@H](O)Cc2ccc(O)cc2)C1 [SPUMIGIN B1] | 33.1 µM |  |  |  |  | 
